Data: ChEMBL document CHEMBL3137667, “[Drug-induced liver injury; fourteenth updated edition of the bibliographic database of liver injuries and related drugs]” (Gastroenterol Clin Biol, 2004)

Experiments:
[1] = human
[2] = human; remark: listed apart in the source
[3] = human; remark: listed apart in the source
[4] = human, serum
[5] = Comments (NB not yet translated). [column 'COMMENTAIRES' in source]; settings: human
[6] = human; remark: listed apart in the source
[7] = human; remark: listed apart in the source
[8] = Highest frequency of acute liver toxicity observed during clinical trials, expressed as a percentage. [column '% AIGUE' in source]; settings: human
[9] = human, serum, 4383 h
[10] = Times to onset, minimal and maximal, observed in the indexed observations. [column 'DELAI' in source]; settings: human
[11] = human; remark: listed apart in the source
[12] = human; remark: listed apart in the source
[13] = human, serum; remark: listed apart in the source
[14] = human; remark: listed apart in the source
[15] = Highest frequency of moderate liver toxicity observed during clinical trials, expressed as a percentage. [column '% BIOL' in source]; settings: human
[16] = human; remark: listed apart in the source
[17] = human; remark: listed apart in the source
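For Hepatotoxicity (association with vascular disease) in this document: count of indexed literature references reporting vascular liver injury in humans, e.g. peliosis hepatitis, hepatic veno-occlusive disease or Budd-Chiari syndrome.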
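For Hepatotoxicity (benign tumour) in this document: value is a count of indexed literature references citing a benign tumour confirmed by histopathology.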
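For Hepatotoxicity (choleostasis) in this document: human cholestatic liver injury, shown by histopathology or by peak ALT or AST elevation over alkaline phosphatase ratio below 2, value counts indexed literature reports.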
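For Hepatotoxicity (chronic liver disease) in this document: chronic liver injury confirmed by histopathology or persistently raised serum aminotransferase activity beyond 6 months, value given as the count of indexed literature references.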
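For Hepatotoxicity (cirrhosis) in this document: value is a count of indexed literature references reporting cirrhosis confirmed by histopathology.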
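For Hepatotoxicity (cytolytic) in this document: human cytolytic liver injury, shown by histopathology or by a ratio above 5 of peak ALT or AST elevation to alkaline phosphatase elevation, value counts indexed references.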
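For Hepatotoxicity (granulomatous hepatitis) in this document: value is a count of indexed literature references reporting granulomatous liver disease confirmed by histopathology.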
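For Hepatotoxicity (malignant tumour) in this document: malignant tumour confirmed by histopathology, value gives the count of indexed literature references reporting it.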
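For Hepatotoxicity (severe hepatitis) in this document: human clinical data: severe hepatitis, meaning potentially life-threatening liver failure or clinically observed cases, the value counts how many indexed literature references report it.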
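For Hepatotoxicity (steatosis) in this document: steatosis confirmed by histopathology, value is the count of indexed references.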

Row | Structure (SMILES) | Hepatotoxicity (cirrhosis) [1] | Hepatotoxicity (severe hepatitis) [2] | Hepatotoxicity (steatosis) [3] | Hepatotoxicity (moderate) [4] | Hepatotoxicity (comment) [5] | Hepatotoxicity (cytolytic) [6] | Hepatotoxicity (choleostasis) [7] | Hepatotoxicity (acute) [8] | Hepatotoxicity (chronic liver disease) [9] | Hepatotoxicity (time to onset) [10] | Hepatotoxicity (benign tumour) [11] | Hepatotoxicity (malignant tumour) [12] | Hepatotoxicity (acute) [13] | Hepatotoxicity (animal toxicity known) [14] | Hepatotoxicity (moderate) [15] | Hepatotoxicity (association with vascular disease) [16] | Hepatotoxicity (granulomatous hepatitis) [17]
1 | COc1cccc2c1C(=O)c1c(O)c3c(c(O)c1C2=O)C[C@@](O)(C(C)=O)C[C@@H]3O[C@H]1C[C@H](N)[C@H](O)[C@H](C)O1 [DAUNORUBICIN] | 0 | 0 | 0 | 3 | I/THIOGUANINE | 2 | 0 | 0% | 0 | 3 cures | 0 | 0 | 2 | yes | 68% | 2 | 0
2 | C=CC[C@@H]1/C=C(\C)C[C@H](C)C[C@H](OC)[C@H]2O[C@@](O)(C(=O)C(=O)N3CCCC[C@H]3C(=O)O[C@H](/C(C)=C/[C@@H]3CC[C@@H](O)[C@H](OC)C3)[C@H](C)[C@@H](O)CC1=O)[C@H](C)C[C@@H]2OC [TACROLIMUS ANHYDROUS] | 0 | 0 | 0 | 1 | MVO PELIOSE | 0 | 0 | 0% | 0 | 1 month - 3 months | 0 | 0 | 0 | yes | 37% | 2 | 0
3 | CN(C)[C@@H]1C(O)=C(C(N)=O)C(=O)[C@@]2(O)C(O)=C3C(=O)c4c(O)cccc4[C@@](C)(O)[C@H]3C[C@@H]12 [TETRACYCLINE] | 0 | 7 | 22 | 1 | CHOLESTASE_PROLONGEE DUCTOPENIE | 2 | 8 | 0% | 1 | 3 days - 2 months | 0 | 0 | 10 | yes | 6.3% | 0 | 0
